Drawing on the supplement of paper PMC10307832, this text covers relative viability for 1 cell line.

Common to all, as to experiment: relative viability (nuclei count vs DMSO), 5 days (fraction); higher = more cells survive
Compound in the assay “Idelalisib + Foretinib”: CC[C@H](Nc1ncnc2[nH]cnc12)c1nc2cccc(F)c2c(=O)n1-c1ccccc1 [Idelalisib] + COc1cc2c(Oc3ccc(NC(=O)C4(C(=O)Nc5ccc(F)cc5)CC4)cc3F)ccnc2cc1OCCCN1CCOCC1 [Foretinib] (partner 0.25 µM)
In a few lines:
(§1)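 Lung cancer cell lines in 1536-well plates got either a single drug or a fixed anchor-drug dose together with five library-drug doses (not always all listed) in √10 steps, by pin tool, on the day after seeding. Nuclei were counted after 5 days, and relative viability is the treated-to-vehicle ratio of nuclei counts. Values are medians of duplicate plates.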

Compound in the assay “Idelalisib + Crizotinib”: CC[C@H](Nc1ncnc2[nH]cnc12)c1nc2cccc(F)c2c(=O)n1-c1ccccc1 [Idelalisib] + C[C@@H](Oc1cc(-c2cnn(C3CCNCC3)c2)cnc1N)c1c(Cl)ccc(F)c1Cl [Crizotinib] (partner 1 µM)
The method, boiled down:
as §1

Compound in the assay “Idelalisib + Alpelisib”: CC[C@H](Nc1ncnc2[nH]cnc12)c1nc2cccc(F)c2c(=O)n1-c1ccccc1 [Idelalisib] + Cc1nc(NC(=O)N2CCC[C@H]2C(N)=O)sc1-c1ccnc(C(C)(C)C(F)(F)F)c1 [Alpelisib] (partner 2 µM)
The method, boiled down: as §1

Compound in the assay “Pemetrexed + Dasatinib”: Nc1nc2[nH]cc(CCc3ccc(C(=O)N[C@@H](CCC(=O)O)C(=O)O)cc3)c2c(=O)[nH]1 [Pemetrexed] + Cc1nc(Nc2ncc(C(=O)Nc3c(C)cccc3Cl)s2)cc(N2CCN(CCO)CC2)n1 [Dasatinib] (partner 0.075 µM)
The method, boiled down:
as §1

UMC-11: the relative viability was found to be 0.957 with Idelalisib + Foretinib (first compound 0.04 µM); 1.07 with Idelalisib + Foretinib (first compound 0.1265 µM); 0.988 in the assay with Idelalisib + Foretinib (first compound 0.4 µM); 1.03 with Idelalisib + Foretinib (first compound 1.265 µM); 1.09 in the assay with Idelalisib + Foretinib (first compound 4 µM); 0.708 with Idelalisib + Crizotinib (first compound 0.04 µM). Further, the relative viability was 0.694 with Idelalisib + Crizotinib (first compound 0.1265 µM); 0.583 in the assay with Idelalisib + Crizotinib (first compound 0.4 µM); 0.541 with Idelalisib + Crizotinib (first compound 1.265 µM); 0.57 in the assay with Idelalisib + Crizotinib (first compound 4 µM); 1.15 in the assay with Idelalisib + Alpelisib (first compound 0.04 µM); 0.999 in the assay with Idelalisib + Alpelisib (first compound 0.1265 µM). The relative viability with Idelalisib + Alpelisib (first compound 0.4 µM) was 0.966; with Idelalisib + Alpelisib (first compound 1.265 µM), 0.987; with Idelalisib + Alpelisib (first compound 4 µM), 1.05; with Pemetrexed + Dasatinib (first compound 0.002 µM) it was 0.483; in the assay with Pemetrexed + Dasatinib (first compound 0.006325 µM), 0.451; with Pemetrexed + Dasatinib (first compound 0.02 µM) it was 0.468. Besides, the relative viability turned out to be 0.442 in the assay with Pemetrexed + Dasatinib (first compound 0.06325 µM) and 0.474 in the assay with Pemetrexed + Dasatinib (first compound 0.2 µM).
